Patent US20100249302A1, “LIQUID COMPOSITION CONTAINING PERFLUORO-CHLOROETHER SOLVENT” (FUJIFILM CORPORATION, priority 2009, published 2010)

How the values were obtained:
[1] = Solubility of FC-72 (perfluorohexane) in the fluorine-containing solvents; assay type: physicochemical; details: for Solubility (% by weight) FC-72 (Fluorine Content: 79% by weight): Table 1, solute FC-72 dissolved in the solvent; for ability of the solvent to dissolve FC-72: label = solvent, solute = FC-72
[2] = Measurement of solubility of compound (17) (fluorine-free organic compound) in fluorine-containing solvents; details: Table 1; solute compound (17) dissolved in the solvent
Procedure: The resulting solution is diluted with deutrochloroform, followed by measuring ^1H-NMR.

[3] = Solubility of coating-composition components in FC-72 (comparative coating examples); details: label = solute, solvent = FC-72; coating composition preparation

| SMILES | Solubility (% by weight) FC-72 (Fluorine Content: 79% by weight) [1] | ability of the solvent to dissolve FC-72 [1] | Solubility (% by weight) Compound (17) (Fluorine Content: 0% by weight) [2] | solubility in FC-72 [3] | Solubility (% by weight) FC-72 [1] |
| --- | --- | --- | --- | --- | --- |
| FC(Cl)(Cl)C(F)(F)OC(F)(Cl)C(Cl)(Cl)Cl (stereo not shown) [Compound (4)] | soluble in any | can dissolve FC-72 in any proportion | soluble in any | – | – |
| OCC(F)(F)C(F)(F)C(F)(F)C(F)(F)C(F)(F)C(F)(F)C(F)(F)C(F)(F)CO [1H,1H,10H,10H-hexadecafluoro-1,10-decanediol] | – | – | – | not completely soluble | – |
| FC(Cl)(Cl)C(F)(F)OC(F)(Cl)C(F)(Cl)Cl (stereo not shown) [Compound (3′)] | – | can dissolve FC-72 in any proportion | – | – | soluble in any |
| FC(F)(Cl)C(F)(OC(F)(Cl)C(F)(Cl)Cl)C(F)(F)Cl (stereo not shown) [Compound (5′)] | – | can dissolve FC-72 in any proportion | – | – | soluble in any |
| FC(F)(Cl)C(F)(OC(F)(Cl)C(Cl)(Cl)Cl)C(F)(F)Cl (stereo not shown) [Compound (3)] | soluble in any | can dissolve FC-72 in any proportion | soluble in any | – | – |
| CCO[Si](CCCN=C=O)(OCC)OCC [3-(triethoxysilyl)propyl isocyanate] | – | – | – | not completely soluble | – |
| FC(Cl)(Cl)C(F)(Cl)OC(F)(F)C(Cl)(Cl)Cl (stereo not shown) [Compound (4′)] | – | can dissolve FC-72 in any proportion | – | – | soluble in any |
| FC(F)(Cl)C(F)(F)OC(F)(Cl)C(Cl)(Cl)Cl (stereo not shown) [Compound (2)] | soluble in any | can dissolve FC-72 in any proportion | soluble in any | – | – |
| FC(F)(OC(F)(Cl)C(Cl)(Cl)Cl)C(Cl)(Cl)Cl (stereo not shown) [Compound (5)] | soluble in any | can dissolve FC-72 in any proportion | soluble in any | – | – |
| FC(F)(Cl)C(F)(F)OC(F)(Cl)C(F)(Cl)Cl (stereo not shown) [Compound (2′)] | – | can dissolve FC-72 in any proportion | – | – | soluble in any |
